Each molecule was assayed against sterol 24-C-methyltransferase (Leishmania major) (assay: Inhibition of Leishmania major recombinant 24-SMT).

Row | SMILES | IC50 [µM]
1 | C[C@H](CNCC(=O)O)[C@H]1CC[C@H]2C3CC=C4C[C@@H](O)CC[C@]4(C)[C@H]3CC[C@]12C (stereo partly drawn) [3beta-ol-23,24-bisnor-5-en-22-(ethanoic acid) amine] | > 100
2 | CC(=O)O[C@H]1CC[C@@]2(C)C(=CCC3[C@@H]4CC[C@H]([C@H](C)C(=O)NC[C@H](NC(=O)OC(C)(C)C)C(=O)O)[C@@]4(C)CC[C@@H]32)C1 (stereo partly drawn) [3beta-acetoxy-23,24-bisnor-5-en-22-(3-(2-Boc-amino)propanoic acid) amide] | > 100
3 | C[C@H](C(=O)NCC(=O)O)[C@H]1CC[C@H]2C3CC=C4C[C@@H](O)CC[C@]4(C)[C@H]3CC[C@]12C (stereo partly drawn) [3beta-ol-23,24-bisnor-5-en-22-(ethanoic acid) amide] | > 100
4 | C[C@H](C(=O)NCCCC(=O)O)[C@H]1CC[C@H]2C3CC=C4C[C@@H](O)CC[C@]4(C)[C@H]3CC[C@]12C (stereo partly drawn) [3beta-ol-23,24-bisnor-5-en-22-(butanoic acid) amide] | > 100
5 | C[C@H](CNCCCCC(=O)O)[C@H]1CC[C@H]2C3CC=C4C[C@@H](O)CC[C@]4(C)[C@H]3CC[C@]12C (stereo partly drawn) [3beta-ol-23,24-bisnor-5-en-22-(pentanoic acid) amine] | 48.9
6 | C[C@H](C(=O)NCCCC[C@H](NC(=O)OCc1ccccc1)C(=O)O)[C@H]1CC[C@H]2C3CC=C4C[C@@H](O)CC[C@]4(C)[C@H]3CC[C@]12C (some centres not stated) [3beat-ol-23,24-bisnor-5-en-22-(6-(2-Z-amino)hexanoic acid) amide] | > 100
7 | COC(=O)[C@@H](N)CCCCNC(=O)[C@@H](C)[C@H]1CC[C@H]2C3CC=C4C[C@@H](O)CC[C@]4(C)[C@H]3CC[C@]12C (stereo partly drawn) [3beta-ol-23,24-bisnor-5-en-22-(6-(2-amino) hexanoate ester) amide] | > 100
8 | C[C@H](C(=O)NCCCCCCCC(=O)O)[C@H]1CC[C@H]2C3CC=C4C[C@@H](O)CC[C@]4(C)[C@H]3CC[C@]12C (stereo partly drawn) [3beta-ol-23,24-bisnor-5-en-22-(octanoic acid) amide] | > 100
9 | COC(=O)CCCCCCCNC[C@@H](C)[C@H]1CC[C@H]2C3CC=C4C[C@@H](OC(C)=O)CC[C@]4(C)[C@H]3CC[C@]12C (stereo partly drawn) [3beta-acetoxy-23,24-bisnor-chol-5-en-22-(methyl octanoate) amine] | > 100
10 | CC(=O)O[C@H]1CC[C@@]2(C)C(=CCC3[C@@H]4CC[C@H]([C@H](C)CNCC[C@H](NC(=O)OC(C)(C)C)C(=O)O)[C@@]4(C)CC[C@@H]32)C1 (stereo partly drawn) [3beta-acetoxy-23,24-bisnor-5-en-22-(4-(2-Boc-amino)butanoic acid) amine] | > 100
11 | CC(=O)O[C@H]1CC[C@@]2(C)C(=CCC3[C@@H]4CC[C@H]([C@H](C)CNCCCCCCCC(=O)O)[C@@]4(C)CC[C@@H]32)C1 (stereo partly drawn) [3beta-acetoxy-23,24-bisnor-chol-5-en-22-(octanoic acid) amine] | > 100
12 | CC(=O)O[C@H]1CC[C@@]2(C)C(=CCC3[C@@H]4CC[C@H]([C@H](C)CNC[C@H](NC(=O)OC(C)(C)C)C(=O)O)[C@@]4(C)CC[C@@H]32)C1 (stereo partly drawn) [3beta-acetoxy-23,24-bisnor-5-en-22-(3-(2-Boc-amino)propanoic acid) amine] | > 100
13 | CC(=O)O[C@H]1CC[C@@]2(C)C(=CCC3[C@@H]4CC[C@H]([C@H](C)C(=O)NCCC[C@H](NC(=O)OCc5ccccc5)C(=O)O)[C@@]4(C)CC[C@@H]32)C1 (stereo partly drawn) [3beta-acetoxy-23,24-bisnor-5-en-22-(5-(2-Z-amino)pentanoic acid) amide] | > 100
14 | C[C@H](CNCCCCCCCC(=O)O)[C@H]1CC[C@H]2C3CC=C4C[C@@H](O)CC[C@]4(C)[C@H]3CC[C@]12C (stereo partly drawn) [3beta-ol-23,24-bisnor-5-en-22-(octanoic acid) amine] | > 100
15 | CC(=O)O[C@H]1CC[C@@]2(C)C(=CCC3[C@@H]4CC[C@H]([C@H](C)C(=O)NCCCC[C@H](NC(=O)OCc5ccccc5)C(=O)OCc5ccccc5)[C@@]4(C)CC[C@@H]32)C1 (stereo partly drawn) [3beta-acetoxy-23,24-bisnor-5-en-22-(6-(2-Z-amino)benzyl hexanoate) amide] | > 100
16 | CC(=O)O[C@H]1CC[C@@]2(C)C(=CCC3[C@@H]4CC[C@H]([C@H](C)C(=O)NCC[C@H](NC(=O)OC(C)(C)C)C(=O)O)[C@@]4(C)CC[C@@H]32)C1 (stereo partly drawn) [3beta-acetoxy-23,24-bisnor-5-en-22-(4-(2-Boc-amino)butanoic acid) amide] | > 100
17 | C[C@H](CNCCCCCC(=O)O)[C@H]1CC[C@H]2C3CC=C4C[C@@H](O)CC[C@]4(C)[C@H]3CC[C@]12C (stereo partly drawn) [3beta-ol-23,24-bisnor-5-en-22-(hexanoic acid) amine] | > 100
18 | C[C@H](C(=O)NCCC[C@H](NC(=O)OCc1ccccc1)C(=O)O)[C@H]1CC[C@H]2C3CC=C4C[C@@H](O)CC[C@]4(C)[C@H]3CC[C@]12C (stereo partly drawn) [3beta-ol-23,24-bisnor-5-en-22-(5-(2-Z-amino)pentanoic acid) amide] | > 100
19 | C[C@H](C(=O)NCCCCC(=O)O)[C@H]1CC[C@H]2C3CC=C4C[C@@H](O)CC[C@]4(C)[C@H]3CC[C@]12C (stereo partly drawn) [3beta-ol-23,24-bisnor-5-en-22-(pentanoic acid) amide] | > 100
20 | COC(=O)CNC[C@@H](C)[C@H]1CC[C@H]2C3CC=C4C[C@@H](OC(C)=O)CC[C@]4(C)[C@H]3CC[C@]12C (stereo partly drawn) [3beta-acetoxy-23,24-bisnor-chol-5-en-22-(methyl ethanoate) amine] | > 100
21 | C[C@H](C(=O)NCCC(=O)O)[C@H]1CC[C@H]2C3CC=C4C[C@@H](O)CC[C@]4(C)[C@H]3CC[C@]12C (stereo partly drawn) [3beta-ol-23,24-bisnor-5-en-22-(propanoic acid) amide] | > 100
22 | CC(=O)O[C@H]1CC[C@@]2(C)C(=CCC3[C@@H]4CC[C@H]([C@H](C)CNCCC[C@H](NC(=O)OCc5ccccc5)C(=O)O)[C@@]4(C)CC[C@@H]32)C1 (stereo partly drawn) [3beta-acetoxy-23,24-bisnor-5-en-22-(5-(2-Z-amino)pentanoic acid) amine] | > 100
23 | CC(=O)O[C@H]1CC[C@@]2(C)C(=CCC3[C@@H]4CC[C@H]([C@H](C)CNCCCC(=O)O)[C@@]4(C)CC[C@@H]32)C1 (stereo partly drawn) [3beta-acetoxy-23,24-bisnor-chol-5-en-22-(butanoic acid) amine] | > 100
24 | COC(=O)CCNC[C@@H](C)[C@H]1CC[C@H]2C3CC=C4C[C@@H](OC(C)=O)CC[C@]4(C)[C@H]3CC[C@]12C (stereo partly drawn) [3beta-acetoxy-23,24-bisnor-chol-5-en-22-(methyl propanoate) amine] | > 100
25 | COC(=O)CCCCNC[C@@H](C)[C@H]1CC[C@H]2C3CC=C4C[C@@H](OC(C)=O)CC[C@]4(C)[C@H]3CC[C@]12C (stereo partly drawn) [3beta-acetoxy-23,24-bisnor-chol-5-en-22-(methyl pentanoate) amine] | > 100
26 | C[C@H](C(=O)NCCCCCC(=O)O)[C@H]1CC[C@H]2C3CC=C4C[C@@H](O)CC[C@]4(C)[C@H]3CC[C@]12C (stereo partly drawn) [3beta-ol-23,24-bisnor-5-en-22-(hexanoic acid) amide] | > 100

These molecules were tested against sterol 24-C-methyltransferase (Trypanosoma brucei brucei) (assay: Inhibition of Trypanosoma brucei brucei recombinant 24-SMT).

Row | SMILES | IC50 [µM]
27 | COC(=O)CCCCCCCNC[C@@H](C)[C@H]1CC[C@H]2C3CC=C4C[C@@H](OC(C)=O)CC[C@]4(C)[C@H]3CC[C@]12C (stereo partly drawn) [3beta-acetoxy-23,24-bisnor-chol-5-en-22-(methyl octanoate) amine] | > 100

— BindingDB's records for doi:10.1021/jm060290f (Cardiff University, 2006)
